Results as given in US20180117047A1, “DRUG FOR PREVENTING AND/OR TREATING DEMENTIA” (NATIONAL UNIVERSITY CORPORATION TOTTORI UNIVERSITY, priority 2015, published 2018).
Values joined by “and” are separate entries in the source; they are usually repeats but may differ in a detail not shown here. Identical values can stand only once. “Also recorded” adds a separate entry of the source.

Tests used:
[1] = test system: Tg(APPSWE)2576KhaTg(Prnp-MAPT*P301L)JNPL3HImc Alzheimer's disease model double transgenic mice; test: Number and size of senile plaques in cerebrum coronal cut surfaces of Alzheimer's disease model double transgenic mice (HE, Aβ40, Aβ42 staining); type: in vivo, mouse
[2] = test system: Tg(APPSWE)2576KhaTg(Prnp-MAPT*P301L)JNPL3HImc Alzheimer's disease model double transgenic mice; test: Number of nerve cells having AT8 immunostaining-positive neurofibrillary tangles in Alzheimer's disease model double transgenic mice; type: in vivo, mouse
[3] = individual mouse, diameter 50 μm or smaller, 5 mg/kg oral every day from one year old, sampled at 730 to 745 days old, 5 mg/kg
[4] = individual mouse, diameter 100 μm or larger, 5 mg/kg oral every day from one year old, sampled at 730 to 745 days old, 5 mg/kg
[5] = individual mouse, diameter between 50 μm and 100 μm, 5 mg/kg oral every day from one year old, sampled at 730 to 745 days old, 5 mg/kg
[6] = individual mouse, 5 mg/kg oral every day from one year old, sampled at 730 to 745 days old, 5 mg/kg

Compound: N#Cc1cc(-c2nc3c(O)ncnc3s2)ccc1Oc1ccccc1 [compound A, 5-(7-hydroxythiazolo[5,4-d]pyrimidin-2-yl)-2-phenoxy-benzonitrile]
- Large-sized senile plaques in the hippocampus compared with placebo control group (photographs) ([1]; HE staining, Aβ40 and Aβ42 immunostaining, FIG. 6 vs FIG. 5): clearly fewer
- Number of large-sized senile plaques per one cerebrum coronal cut surface ([1]; group average±standard deviation, 4 mice, 5 mg/kg oral daily about one year, control 26.9±12.3): 11.1±5.9
- Number of medium-sized senile plaques per one cerebrum coronal cut surface ([1]; group average±standard deviation, 4 mice, 5 mg/kg oral daily about one year, control 44.3±14.5): 30.9±20.5
- Number of small-sized senile plaques per one cerebrum coronal cut surface ([1]; group average±standard deviation, 4 mice, 5 mg/kg oral daily about one year, control 88.3±35.2): 104.4±36.8
- Number of small senile plaques, entorhinal cortex coronal cut surface [1, 3]: 96 and 78 and 110 and 164
- Number of small senile plaques, mammillary body coronal cut surface [1, 3]: 113 and 38 and 106 and 130
- Number of large-sized senile plaques, entorhinal cortex coronal cut surface [1, 4]: 16 and 10 and 11 and 2
- Number of large-sized senile plaques, mammillary body coronal cut surface [1, 4]: 21 and 12 and 5
- Number of medium-sized senile plaques, entorhinal cortex coronal cut surface [1, 5]: 78 and 24 and 31 and 14
- Number of medium-sized senile plaques, mammillary body coronal cut surface [1, 5]: 33 and 12 and 25 and 30
- Number of large-sized senile plaques compared with the control group ([1]; p=0.013, Mann-Whitney U test, 5 mg/kg oral daily, FIG. 7, 5 mg/kg): significantly smaller; also recorded: significantly suppresses; also recorded: especially suppressed
- Number of medium-sized senile plaques compared with the control group ([1]; p=0.036, Mann-Whitney U test, 5 mg/kg oral daily, FIG. 7, 5 mg/kg): significantly smaller; also recorded: significantly suppresses; also recorded: especially suppressed
- Number of small senile plaques compared with the control group ([1]; p=0.400, Mann-Whitney U test, 5 mg/kg oral daily, FIG. 7): Any significant difference was not observed
- Tangle number as percentage of that of the control group ([2]; FIG. 10, 5 mg/kg oral daily): 36%
- Number of nerve cells having AT8 immunostaining-positive neurofibrillary tangles per one cerebrum coronal cut surface ([2]; group average±standard deviation, 4 mice, 5 mg/kg oral daily about one year, control 209.9±46.0): 77.0±67.1
- Number of nerve cells having AT8 immunostaining-positive neurofibrillary tangles, amygdaloid nucleus maximum diameter coronal cut surface [2, 6]: 103 and 175 and 13 and 18
- Number of nerve cells having AT8 immunostaining-positive neurofibrillary tangles, hypothalamus coronal cut surface [2, 6]: 149 and 119 and 26 and 13
- Number of nerve cells having AT8 immunostaining-positive neurofibrillary tangles compared with the control group ([2]; p=0.016, Mann-Whitney U test, amygdaloid nucleus and hypothalamus, 5 mg/kg oral daily, FIG. 9, 10, 5 mg/kg): significantly smaller; also recorded: markedly suppresses; also recorded: fewer; also recorded: significantly lower
